In patent US9763961B2, “Compositions that modulate the activity of estrogen receptors and estrogen-related receptors and methods for use” (CITY OF HOPE, priority 2005, dated 2017):

Key:
[1] = system: ERRα with coactivators GRIP-1 and PGC-1a; assay: Coactivator (GRIP-1, PGC-1a)-induced ERRα activity, Gal4-TK-Luc cotransfection in HeLa cells; assay type: cell-based; settings: GRIP-1 and PGC-1a cotransfection, FIG. 3
Source text: To further confirm the antagonism of chalcones, the effect of Compound No. 1-9 on the interaction between ERRα and coactivators (GRIP-1 and PGC-1a) were investigated. HeLa cells were cotransfected with GAL4-binding site containing luciferase reporter and the expression plasmids for ERRα, GRIP-1 and PGC-1a. The ERRα activity was induced 5-fold and 13-fold by cotransfection with GRIP-1 and PGC-1 a, respectively.
Referring to FIG. 3, cotransfection experiments with GAL4-binding site containing luciferase reporter (Gal4-TK-Luc; 0.5 μg) and the expression plasmids for ERRα (pM-ERRα LBD; 0.5 μg), GRIP-1 (pSG5-GRIP-1; 0.5 μg) and PGC-1a(pSG5-PGC-1α; 0.25 μg) were performed in HeLa cells. Values represent the mean±SD.

ERRα [2] = target: T1, ERRα (Homo sapiens, UniProt P11474); assay: Competitive [3H] genistein binding whole cell assay in ERRα-positive SK-BR-3 cells; design: endogenous in cells; host or cells: SK-BR-3; settings: FIG. 4
T1 sequence (P11474 1-423): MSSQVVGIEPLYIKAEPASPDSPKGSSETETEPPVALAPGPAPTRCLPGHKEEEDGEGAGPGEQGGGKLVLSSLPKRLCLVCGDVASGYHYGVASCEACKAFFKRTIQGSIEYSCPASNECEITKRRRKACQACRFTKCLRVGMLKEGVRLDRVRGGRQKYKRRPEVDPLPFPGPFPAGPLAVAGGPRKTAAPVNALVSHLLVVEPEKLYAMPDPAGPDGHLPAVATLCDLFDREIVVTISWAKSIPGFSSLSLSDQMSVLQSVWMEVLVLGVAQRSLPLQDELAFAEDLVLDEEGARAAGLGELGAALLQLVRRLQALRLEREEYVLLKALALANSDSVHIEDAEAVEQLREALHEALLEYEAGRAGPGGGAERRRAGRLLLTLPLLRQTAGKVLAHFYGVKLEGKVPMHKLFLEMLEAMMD
Experimental: In order to directly measure the binding affinities of agonists and inverse agonists to ERRα, we performed a competitive ERR binding whole cell assay using ERRα-positive SK-BR-3 cells. This method is developed based on the ER binding assay posted by the National Toxicology Program at the NIEHS <<http://iccvam.niehs.nih.gov/methods/endodocs/final/erbndbrd/erbdappx/B1.pdf>>. […] After the cells were washed twice with PBS, 250 μl ethanol will be added to each well for 20 min. Aliquots of ethanol extract was mixed with scintillation liquid for radioactivity measurements. The experiments have been performed in triplicate.
In addition to reporter activity assay, in order to evaluate the interaction of chalcones with ERRα, a competitive binding assay was performed.
Referring to FIG. 4, SK-BR-3 cells, which are positive for ERRα, were incubated with 1 μM of [3H] GEN and increasing concentrations of unlabeled GEN or Compound Nos. 1-9 or 7-5. After 1 h of incubation, the cells were washed with 1× PBS, and [3H] GEN was then extracted from the cells by an incubation of 30 min in 250 μl of ethanol. Values represent the mean±SD.

ERRα [3] = target: T1, ERRα; assay: Transient transfection assays, relative luciferase activity for ERRα (FIG. 7); assay type: cell-based
Experimental: HeLa cells were cultured in MEM Earle's salts medium supplemented with 5% charcoal/dextran-treated fetal bovine serum. Cells were then divided and cultured in 6-well plates until 80% confluence was achieved. The cells were next transfected with 4 μg Lipofectin. An equal amount of total DNA was used in all transfections by including appropriate amounts of the empty vector, pSG5, in addition to specific amounts of pSG5-ERRα and luciferase reporter plasmids (ERRE (ERRα recognizes an ERE half site)-containing reporter and aromatase promoter I.3-containing reporter). Following an overnight incubation, the medium containing Lipofectin and DNA was removed, and the cells cultured in a growth medium containing 5% charcoal/dextran-treated fetal bovine serum with or without ligands. After a 24-hour incubation, the cells was harvested from the plates by scraping, and the luciferase activities in the cell lysates (with the same amounts of protein) was measured according to the manufacturer's instructions (Promega). All experiments were performed in triplicate.
Referring to FIG. 2, we have also prepared GAL4-ERRα expression plasmid and luciferase reporter plasmids with GAL4 response element. This is a more sensitive assay method than that using pSG5-ERRα and ERE luciferase reporter plasmids.
The 2-methoxyl group may be important for the antagonistic activity of the chalcone. […]

[4] = system: promoter I.3 of human aromatase gene (through ERRα); assay: Aromatase promoter I.3 luciferase reporter with pSG5-ERRα in HepG2 cells; assay type: cell-based; settings: 24 h, FIG. 5
Experimental: Aromatase expression is regulated by several promoters, including ERRα modulating promoter I.3. In order to evaluate the effect of chalcones on aromatase activity through ERRα, transient transfection experiments using luciferase reporter plasmid containing a regulatory element S1 and promoter I.3 of human aromatase gene were performed in HepG2 cells. The transfected cells were incubated with chalcones, and luciferase activity was measured.
Referring to FIG. 5, HepG2 cells were cotransfected with pSG5-ERRα (2 μg) and luciferase reporter plasmid containing S1 and promoter I.3 of human aromatase gene (0.5 μg). The transfected cells were incubated with Compound No. 1-9 for 24 h. After cells were washed with 1× PBS, luciferase activity was measured. Values represent the mean±SD.

ERRγ = target: T2, ERRγ (Homo sapiens, UniProt P62508); assay: Transient transfection luciferase assay with pSG5-ERRg and SF1-SV40 reporter in HeLa cells; assay type: cell-based; settings: for IC50: HeLa cells, 24 h, average of at least two experiments; for Antagonistic properties on ERRg (in words): transient transfection
T2 construct: expressed in transfected cells; host or cells: HeLa
T2 sequence (P62508 1-458): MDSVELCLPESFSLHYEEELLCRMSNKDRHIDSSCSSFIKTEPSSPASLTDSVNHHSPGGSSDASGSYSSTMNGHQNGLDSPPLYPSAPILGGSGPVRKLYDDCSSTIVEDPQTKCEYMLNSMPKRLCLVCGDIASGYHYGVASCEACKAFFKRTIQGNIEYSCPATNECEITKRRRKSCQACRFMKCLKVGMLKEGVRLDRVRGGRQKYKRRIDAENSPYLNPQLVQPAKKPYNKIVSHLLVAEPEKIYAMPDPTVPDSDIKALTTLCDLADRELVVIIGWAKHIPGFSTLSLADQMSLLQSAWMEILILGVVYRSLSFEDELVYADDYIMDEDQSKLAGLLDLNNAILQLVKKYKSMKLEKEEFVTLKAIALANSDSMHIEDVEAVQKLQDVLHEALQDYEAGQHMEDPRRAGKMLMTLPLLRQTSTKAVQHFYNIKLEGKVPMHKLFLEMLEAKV

COc1cccc(/C=C/C(=O)c2ccc(O)cc2O)c1OC [Compound No. 1-9, 2′,4′-Dihydroxy-2,3-dimethoxychalcone]
Effect on coactivator-induced ERRα activity [1]: suppressed the coactivator-induced ERRα activity in a dose-dependent manner
Inhibition of binding of [3H] labeled genistein (in words) (ERRα [2]): competitively inhibited the binding of [3H] labeled genistein in a dose-dependent manner
Effect on constitutive activity of ERRα (relative luciferase activity) (ERRα [3]; compared to DMSO control, FIG. 7): can suppress the constitutive activity of ERRα
IC50 (ERRα [3]; read-out: IC50 values through transient transfection assays): 0.7 to 2 µM
Effect on promoter I.3 activity [4]: suppressed the promoter I.3 activity in a dose-dependent manner
IC50 (ERRγ): 8 µM
Antagonistic properties on ERRg (in words) (ERRγ): showed antagonistic properties

O=C(/C=C/c1ccccc1O)c1ccc(O)cc1O [Compound No. 7-5, 2,2′,4′-Trihydroxychalcone]
Inhibition of binding of [3H] labeled genistein (in words) (ERRα [2]): competitively inhibited the binding of [3H] labeled genistein in a dose-dependent manner
IC50 (ERRγ): 3.7 µM
Antagonistic properties on ERRg (in words) (ERRγ): showed antagonistic properties
